Data from paper PMC6130489, “Caffeic acid methyl and ethyl esters exert potential antidiabetic effects on glucose and lipid metabolism in cultured murine insulin-sensitive cells through mechanisms implicating activation of AMPK” (Pharmaceutical Biology, 2017).
Several values for one entry are separate records, joined by “and”; a condition that tells them apart may be missing. Equal entries are not always repeated.

Experiments:
[1] = tested on: Akt; assay: Western immunoblot phospho-Akt in H4IIE cells; type: cell-based, rat; conditions: 50 μM, 18 h
Description: (§1) L6 cells myotubes, H4IIE cells and 3T3-L1 adipocytes were treated with either CAME, CAEE (50 μM each) or vehicle (DMSO) for 18 h. Insulin (100 nM) or aminoimidazole carboxamide ribonucleotide (AICAR; 1 mM) were added to some vehicle-treated wells 30 min prior to the end of the treatment and served as the positives controls. Protein content was assayed by the bicinchoninic acid method (Thermo Scientific Pierce Protein Research, Rockford, IL) standardized to bovine serum albumin. Western immunoblotting was performed as described elsewhere (Eid et al. [2010]). […] Immunoreactive bands were visualized by enhanced chemiluminescence and quantified by the Scion Image program (Scion Corporation, Frederick, MD). […]
Figure 2. […] (A) H4IIE hepatocytes were treated for 16 h with several concentrations (12.5, 25, 50 and100 μM) of either CAME or CAEE and G6Pase activity was determined colorimetrically using a commercial glucose assay kit as described under Materials and Methods. […] (D) Data are expressed as phospho-AMPK/pan-AMPK and are given as mean ± SEM from 3 experiments. *p < 0.05 indicates a significant difference, **(p < 0.01), ***(p < 0.001) from the vehicle control group.

[2] = tested on: L6 GLUT4myc myotubes; assay: 3H-Deoxyglucose uptake assay; type: cell-based, rat; conditions: 50 μM, 18 h; for 2-deoxyglucose uptake rate: basal (DMSO) 10.1 ± 0.5
Description: Measurement of glucose uptake was performed as previously described (Eid et al. [2010]) using [^3H]-2-deoxyglucose (TRK-383, Amersham Biosciences, Buckinghamshire, UK). Nonspecific uptake was measured in the presence of cytochalasin B (10 μM) and was subtracted from all values.
(§2) Figure 1. (A) CAME and CAEE increase ^3H-deoxyglucose uptake in L6 GLUT4myc myotubes. Cells were treated with 50 μM of either CAME, CAEE, or with vehicle (0.1% DMSO) for 18 h. 100 nM insulin served as the positive control and was applied for the last 15 min of the treatment in vehicle-treated cells. Glucose uptake was performed as described in Materials and Methods section. (B) CAME and CAEE stimulate GLUT4 translocation in L6 GLUT4myc myotubes. Cells were treated as previously described, cell surface GLUT4myc was detected by an enzyme-linked colorimetric assay. By the end of the treatment, L6- GLUT4myc cells were labeled with anti-c-myc antibody as described in Materials and Methods section. Results represent the means ± SEM of three independent experiments, and 3-4 cells were analyzed for each condition per experiment. *Indicates a significant (p ≤ 0.05) difference, **(p < 0.01) from the vehicle control group as assessed by ANOVA. […] L6 myotubes treated with CAME or CAEE (50 μM each), DMSO (0.1%) for 18 h. Insulin (100 nM) and AICAR (2 mM) both applied for 30 min and served as positive controls. Immunoblots were probed with anti phospho-AMPK (Thr 172), anti-GLUT4, anti-GLUT1 and anti-phospho-Akt (Ser 473) antibodies as described in Materials and Methods section. Anti-β-actin antibody was used as a loading control. Representative blots are shown in panel C. Data are expressed as (D) phospho-AMPK/β-actin, (E) GLUT4/β-actin and (F) GLUT1/β-actin and are given as mean ± SEM from 3 experiments. *p < 0.05 indicates a significant difference, **(p < 0.01) from the vehicle control group.

[3] = tested on: Akt; assay: Western immunoblot phospho-Akt in L6 myotubes; type: cell-based, rat; conditions: 50 μM, 18 h
Description: as §1
Figure 1. […] Cells were treated as previously described, cell surface GLUT4myc was detected by an enzyme-linked colorimetric assay. […] Results represent the means ± SEM of three independent experiments, and 3-4 cells were analyzed for each condition per experiment. *Indicates a significant (p ≤ 0.05) difference, **(p < 0.01) from the vehicle control group as assessed by ANOVA. […] Data are expressed as (D) phospho-AMPK/β-actin, (E) GLUT4/β-actin and (F) GLUT1/β-actin and are given as mean ± SEM from 3 experiments. *p < 0.05 indicates a significant difference, **(p < 0.01) from the vehicle control group.

[4] = tested on: Akt; assay: Western immunoblot phospho-Akt in 3T3-L1 adipocytes; type: cell-based, mouse; conditions: 100 μM (Figure 4 legend)
Description: Insulin (100 nM) or aminoimidazole carboxamide ribonucleotide (AICAR; 1 mM) were added to some vehicle-treated wells 30 min prior to the end of the treatment and served as the positives controls. Protein content was assayed by the bicinchoninic acid method (Thermo Scientific Pierce Protein Research, Rockford, IL) standardized to bovine serum albumin. Western immunoblotting was performed as described elsewhere (Eid et al. [2010]). Membranes were incubated overnight with phospho-AMPK, phospho-Akt, GLUT4, GLUT1 and β-actin antibodies (1:1000 dilution, Cell Signalling Technology, Danvers, MA), or with PPAR-γ, SREBP-1 (1:200, Santa Cruze Biotechnology, Santa Cruz, CA), followed by incubation with HRP-coupled secondary antibody (1:10,000) for 1 h. Immunoreactive bands were visualized by enhanced chemiluminescence and quantified by the Scion Image program (Scion Corporation, Frederick, MD). Experiments were repeated on 3 different passages of cells, each passage containing all conditions in parallel.
Figure 4. CAME and CAEE inhibit C/EBP-β and PPAR-γ protein expression through mechanisms implicating AMPK pathway. Shown are representative blots of 3T3-adipocytes treated with the maximum nontoxic concentration (100 μM) of either CAME or CAEE. […] Data are expressed as C/EBP-β/β-actin (D), PPAR-γ/β-actin (E), phospho-Akt/pan-Akt (F) and phospho-AMPK/pan-AMPK (G). […]

[5] = tested on: GLUT4myc; assay: Cell surface GLUT4myc (GLUT4 translocation), OPD assay; type: cell-based, rat; conditions: 50 μM, 18 h; L6-GLUT4myc
Description: L6-GLUT4myc myotubes grown in 24-well plates were serum-starved for 4 h and were incubated with either CAME or CAEE (50 μM) for 18 h or insulin (100 nM) for 15 min. Cell-surface GLUT4myc levels were measured by an antibody-coupled colorimetric assay (Niu et al. [2003]) using O-phenylenediamine dihydrochloride (OPD) reagent (1 mL/well) (Sigma-Aldrich, St. Louis, MO), an anti-c-myc antibody (1:200 dilution; Santa Cruz Biotechnology, Santa Cruz, CA) and horseradish peroxidase (HRP)-conjugated goat anti-rabbit IgG at 4 °C (1:1000 dilution; Cell Signaling Technologies, Danvers, MA).
as §2, with “Anti-β-actin antibody was used as a loading control. Representative blots are shown in panel C.” left out

SMILES	phosphorylation of Akt [1]	glucose uptake, percent of DMSO control [2] [%]	2-deoxyglucose uptake rate [2] [pmol/min/mg protein]	effect on Akt (phospho-Akt) [3]	Akt phosphorylation [4]	GLUT4 translocation, fold relative to DMSO [5]
COC(=O)/C=C/c1ccc(O)c(O)c1 [CAME, CA methyl ester]	did not increase	184 ± 16	18.7 ± 0.8	no effect	did not modulate	1.73 ± 0.18 fold and 1.79 ± 0.18 fold
CCOC(=O)/C=C/c1ccc(O)c(O)c1 [CAEE, caffeic acid ethyl ester]	did not increase	216 ± 19	21.9 ± 1.0	no effect	did not modulate	1.95 ± 0.30 fold
